# In US7091202B2, “4-arylspirocycloalkyl-2-aminopyrimidine carboxamide KCNQ potassium channel modulators” (Bristol-Myers Squibb Company, priority 2004, dated 2006):
# Biological target: T1, hQ23 (HEK-293 cell line stably transfected with one of the members of the KCNQ family) (Homo sapiens, UniProt O43525+O43526)
# T1 construct: expressed in transfected cells; host or cells: HEK-293, stably transfected
# Assay: Thallium flux assay for KCNQ channel blockers (FLIPR, BTC dye)
# Assay type: cell-based
# Conditions: hQ23 cells, thallium flux
# How it was run: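 FLIPR thallium flux readout (BTC dye, 2 μM AM ester) in stably transfected KCNQ HEK-293 cells, chloride-free HEPES buffer pH 7.3, Tl2SO4 stimulus. IC50s were fitted with a single-site logistic equation across 10 points at 1:3 dilutions, defined as 50% of positive-control block; minimal active concentration meant signal ≥4 SD over DMSO controls.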
# T1 sequence (O43526 whole entry): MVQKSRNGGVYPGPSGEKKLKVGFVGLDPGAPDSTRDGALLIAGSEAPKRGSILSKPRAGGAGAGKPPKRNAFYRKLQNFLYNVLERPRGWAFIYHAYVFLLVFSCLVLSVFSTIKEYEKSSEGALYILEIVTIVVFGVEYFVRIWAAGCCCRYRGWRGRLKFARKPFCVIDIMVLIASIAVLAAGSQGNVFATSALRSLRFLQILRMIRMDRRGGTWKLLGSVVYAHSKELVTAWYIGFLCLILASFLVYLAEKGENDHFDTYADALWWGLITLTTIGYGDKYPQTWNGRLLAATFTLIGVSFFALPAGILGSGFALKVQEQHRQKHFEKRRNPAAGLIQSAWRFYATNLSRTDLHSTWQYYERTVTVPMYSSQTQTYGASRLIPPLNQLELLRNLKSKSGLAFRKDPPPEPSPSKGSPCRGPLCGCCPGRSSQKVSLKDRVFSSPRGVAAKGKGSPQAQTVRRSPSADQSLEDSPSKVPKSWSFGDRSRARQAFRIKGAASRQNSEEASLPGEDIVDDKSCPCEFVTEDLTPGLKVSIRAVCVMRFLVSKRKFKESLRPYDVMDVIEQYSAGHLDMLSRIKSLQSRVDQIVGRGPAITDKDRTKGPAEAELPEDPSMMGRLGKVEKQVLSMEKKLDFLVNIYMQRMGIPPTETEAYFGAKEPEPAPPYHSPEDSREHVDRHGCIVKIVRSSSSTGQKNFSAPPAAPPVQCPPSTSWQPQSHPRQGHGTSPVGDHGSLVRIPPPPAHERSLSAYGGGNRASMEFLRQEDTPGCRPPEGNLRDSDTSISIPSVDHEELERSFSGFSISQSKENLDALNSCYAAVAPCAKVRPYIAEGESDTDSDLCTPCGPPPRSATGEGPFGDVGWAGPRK
# T1 sequence (O43525 whole entry): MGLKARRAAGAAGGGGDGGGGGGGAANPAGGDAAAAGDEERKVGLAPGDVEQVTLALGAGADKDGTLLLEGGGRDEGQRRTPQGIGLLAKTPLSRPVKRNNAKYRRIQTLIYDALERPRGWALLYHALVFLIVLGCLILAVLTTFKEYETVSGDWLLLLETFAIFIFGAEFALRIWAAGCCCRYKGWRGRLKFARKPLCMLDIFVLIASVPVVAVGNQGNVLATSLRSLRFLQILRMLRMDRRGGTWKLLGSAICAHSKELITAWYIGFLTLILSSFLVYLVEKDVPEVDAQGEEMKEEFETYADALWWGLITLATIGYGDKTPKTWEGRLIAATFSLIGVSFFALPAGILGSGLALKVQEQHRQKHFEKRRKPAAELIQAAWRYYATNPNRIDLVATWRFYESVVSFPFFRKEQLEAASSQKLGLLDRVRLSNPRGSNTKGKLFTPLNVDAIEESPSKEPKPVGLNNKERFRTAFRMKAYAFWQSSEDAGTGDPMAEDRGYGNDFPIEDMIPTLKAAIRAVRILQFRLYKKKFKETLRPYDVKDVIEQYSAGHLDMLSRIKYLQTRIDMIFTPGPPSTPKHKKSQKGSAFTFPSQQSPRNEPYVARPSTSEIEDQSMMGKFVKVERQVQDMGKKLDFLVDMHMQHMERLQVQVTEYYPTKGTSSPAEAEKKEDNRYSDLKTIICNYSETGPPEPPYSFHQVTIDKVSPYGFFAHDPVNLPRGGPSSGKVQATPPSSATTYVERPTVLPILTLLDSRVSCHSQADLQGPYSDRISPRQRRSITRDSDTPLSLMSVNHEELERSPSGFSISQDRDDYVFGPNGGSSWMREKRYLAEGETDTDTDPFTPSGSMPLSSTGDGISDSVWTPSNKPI
row,SMILES,EC50
1,"CC1CCC(Nc2ncc(C(=O)NC(C)c3ccc(F)cc3)c(C3(c4ccccc4)CCCC3)n2)CC1 (centres unmarked) [Example 131, 5-pyrimidinecarboxamide, N-[1-(4-fluorophenyl)ethyl]-2-[(4-methylcyclohexyl)amino]-4-(1-phenylcyclopentyl)-]",158 nM
2,"CC(NC(=O)c1cnc(N2CCCC2)nc1C1(c2ccccc2)CCCC1)c1ccc(F)cc1 (centres unmarked) [Example 132, 5-pyrimidinecarboxamide, N-[1-(4-fluorophenyl)ethyl]-4-(1-phenylcyclopentyl)-2-(1-pyrrolidinyl)-]",195 nM
3,"CC(NC(=O)c1cnc(N2CCN(C)CC2)nc1C1(c2ccccc2)CCCC1)c1ccc(F)cc1 (centres unmarked) [Example 133, 5-pyrimidinecarboxamide, N-[1-(4-fluorophenyl)ethyl]-2-(4-methyl-1-piperazinyl)-4-(1-phenylcyclopentyl)-]",442 nM
4,"CC1CCN(c2ncc(C(=O)NC(C)c3ccc(F)cc3)c(C3(c4ccccc4)CCCC3)n2)CC1 (centres unmarked) [Example 134, 5-pyrimidinecarboxamide, N-[1-(4-fluorophenyl)ethyl]-2-(4-methyl-1-piperidinyl)-4-(1-phenylcyclopentyl)-]",98 nM
5,"CCC(C)Nc1ncc(C(=O)NC(C)c2ccc(F)cc2)c(C2(c3ccccc3)CCCC2)n1 (centres unmarked) [Example 135, 5-pyrimidinecarboxamide, N-[1-(4-fluorophenyl)ethyl]-2-[(1-methylpropyl)amino]-4-(1-phenylcyclopentyl)-]",29 nM
6,"CC(NC(=O)c1cnc(NC2CCCC2)nc1C1(c2ccccc2)CCCC1)c1ccc(F)cc1 (centres unmarked) [Example 136, 5-pyrimidinecarboxamide, 2-(cyclopentylamino)-N-[1-(4-fluorophenyl)ethyl]-4-(1-phenylcyclopentyl)-]",413 nM
7,"CC1CCC(Nc2ncc(C(=O)NCc3ccc(C(F)(F)F)cc3)c(C3(c4ccccc4)CCCC3)n2)CC1 (centres unmarked) [Example 137, 5-pyrimidinecarboxamide, 2-[(4-methylcyclohexyl)amino]-4-(1-phenylcyclopentyl)-N-[[4-(trifluoromethyl)phenyl]methyl]-]",964 nM
8,"CN1CCN(c2ncc(C(=O)N(C)Cc3ccccc3)c(C3(c4ccc(Cl)cc4)CCCC3)n2)CC1 [Example 139, 5-pyrimidinecarboxamide, 4-[1-(4-chlorophenyl)cyclopentyl]-N-methyl-2-(4-methyl-1-piperazinyl)-N-(phenylmethyl)-]",70 nM
9,"CC1CCN(c2ncc(C(=O)N(C)Cc3ccccc3)c(C3(c4ccc(Cl)cc4)CCCC3)n2)CC1 [Example 140, 5-pyrimidinecarboxamide, 4-[1-(4-chlorophenyl)cyclopentyl]-N-methyl-2-(4-methyl-1-piperidinyl)-N-(phenylmethyl)-]",246 nM
10,"CN(Cc1ccccc1)C(=O)c1cnc(NC2CCCC2)nc1C1(c2ccc(Cl)cc2)CCCC1 [Example 141, 5-pyrimidinecarboxamide, 4-[1-(4-chlorophenyl)cyclopentyl]-2-(cyclopentylamino)-N-methyl-N-(phenylmethyl)-]",183 nM
11,"O=C(c1cnc(NC2CCCC2)nc1C1(c2ccc(Cl)cc2)CCCC1)N1CCc2ccccc2C1 [Example 142, isoquinoline, 2-[[4-[1-(4-chlorophenyl)cyclopentyl]-2-(cyclopentylamino)-5-pyrimidinyl]carbonyl]-1,2,3,4-tetrahydro-]",535 nM
12,"CCC(C)Nc1ncc(C(=O)N(CC)C2CCCCC2)c(C2(c3ccc(Cl)cc3)CCCC2)n1 (centres unmarked) [Example 143, 5-pyrimidinecarboxamide, 4-[1-(4-chlorophenyl)cyclopentyl]-N-cyclohexyl-N-ethyl-2-[(1-methylpropyl)amino]-]",880 nM
13,"CC1CCCN(C(=O)c2cnc(NC3CC3)nc2C2(c3ccc(Cl)cc3)CCCC2)C1 (centres unmarked) [Example 144, piperidine, 1-[[4-[1-(4-chlorophenyl)cyclopentyl]-2-(cyclopropylamino)-5-pyrimidinyl]carbonyl]-3-methyl-]",884 nM
14,"CN(CCc1ccccc1)C(=O)c1cnc(NC2CC2)nc1C1(c2ccc(Cl)cc2)CCCC1 [Example 145, 5-pyrimidinecarboxamide, 4-[1-(4-chlorophenyl)cyclopentyl]-2-(cyclopropylamino)-N-methyl-N-(2-phenylethyl)-]",895 nM
15,"CC1CCC(Nc2ncc(C(=O)N(C)CCc3ccccc3)c(C3(c4ccc(Cl)cc4)CCCC3)n2)CC1 (centres unmarked) [Example 146, 5-pyrimidinecarboxamide, 4-[1-(4-chlorophenyl)cyclopentyl]-N-methyl-2-[(4-methylcyclohexyl)amino]-N-(2-phenylethyl)-]",664 nM
16,"CN(CCc1ccccc1)C(=O)c1cnc(N2CCCC2)nc1C1(c2ccc(Cl)cc2)CCCC1 [Example 147, 5-pyrimidinecarboxamide, 4-[1-(4-chlorophenyl)cyclopentyl]-N-methyl-N-(2-phenylethyl)-2-(1-pyrrolidinyl)-]",169 nM
17,"CN(CCc1ccccc1)C(=O)c1cnc(NC2CCCC2)nc1C1(c2ccc(Cl)cc2)CCCC1 [Example 148, 5-pyrimidinecarboxamide, 4-[1-(4-chlorophenyl)cyclopentyl]-2-(cyclopentylamino)-N-methyl-N-(2-phenylethyl)-]",597 nM
18,"CCN(Cc1ccccc1)C(=O)c1cnc(NC2CCCC2)nc1C1(c2ccc(Cl)cc2)CCCC1 [Example 149, 5-pyrimidinecarboxamide, 4-[1-(4-chlorophenyl)cyclopentyl]-2-(cyclopentylamino)-N-ethyl-N-(phenylmethyl)-]",525 nM
19,"O=C(NCc1ccc2c(c1)OCO2)c1cnc(NC2CC2)nc1C1(c2ccc(Cl)cc2)CCCC1 [Example 150, 5-pyrimidinecarboxamide, N-(1,3-benzodioxol-5-ylmethyl)-4-[1-(4-chlorophenyl)cyclopentyl]-2-(cyclopropylamino)-]",717 nM
20,"CC1CCC(Nc2ncc(C(=O)NCc3ccc4c(c3)OCO4)c(C3(c4ccc(Cl)cc4)CCCC3)n2)CC1 (centres unmarked) [Example 151, 5-pyrimidinecarboxamide, N-(1,3-benzodioxol-5-ylmethyl)-4-[1-(4-chlorophenyl)cyclopentyl]-2-[(4-methylcyclohexyl)amino]-]",119 nM

# The next lines start with the values.
row,EC50,SMILES
1,107 nM,"O=C(NCc1ccc2c(c1)OCO2)c1cnc(N2CCCC2)nc1C1(c2ccc(Cl)cc2)CCCC1 [Example 152, 5-pyrimidinecarboxamide, N-(1,3-benzodioxol-5-ylmethyl)-4-[1-(4-chlorophenyl)cyclopentyl]-2-(1-pyrrolidinyl)-]"
2,10 nM,"CC1CCCN(c2ncc(C(=O)NCc3ccc4c(c3)OCO4)c(C3(c4ccc(Cl)cc4)CCCC3)n2)C1 (centres unmarked) [Example 153, 5-pyrimidinecarboxamide, N-(1,3-benzodioxol-5-ylmethyl)-4-[1-(4-chlorophenyl)cyclopentyl]-2-(3-methyl-1-piperidinyl)-]"
3,10 nM,"CC1CCN(c2ncc(C(=O)NCc3ccc4c(c3)OCO4)c(C3(c4ccc(Cl)cc4)CCCC3)n2)CC1 [Example 154, 5-pyrimidinecarboxamide, N-(1,3-benzodioxol-5-ylmethyl)-4-[1-(4-chlorophenyl)cyclopentyl]-2-(4-methyl-1-piperidinyl)-]"
4,337 nM,"CCC(C)Nc1ncc(C(=O)NCc2ccc3c(c2)OCO3)c(C2(c3ccc(Cl)cc3)CCCC2)n1 (centres unmarked) [Example 155, 5-pyrimidinecarboxamide, N-(1,3-benzodioxol-5-ylmethyl)-4-[1-(4-chlorophenyl)cyclopentyl]-2-[(1-methylpropyl)amino]-]"
5,70 nM,"O=C(NCc1ccc2c(c1)OCO2)c1cnc(NC2CCCC2)nc1C1(c2ccc(Cl)cc2)CCCC1 [Example 156, 5-pyrimidinecarboxamide, N-(1,3-benzodioxol-5-ylmethyl)-4-[1-(4-chlorophenyl)cyclopentyl]-2-(cyclopentylamino)-]"
6,195 nM,"CC(NC(=O)c1cnc(NC2CC2)nc1C1(c2ccc(Cl)cc2)CCCC1)c1cccc2ccccc12 (centres unmarked) [Example 157, 5-pyrimidinecarboxamide, 4-[1-(4-chlorophenyl)cyclopentyl]-2-(cyclopropylamino)-N-[1-(1-naphthalenyl)ethyl]-]"
7,40 nM,"CC(NC(=O)c1cnc(N2CCCC2)nc1C1(c2ccc(Cl)cc2)CCCC1)c1cccc2ccccc12 (centres unmarked) [Example 158, 5-pyrimidinecarboxamide, 4-[1-(4-chlorophenyl)cyclopentyl]-N-[1-(1-naphthalenyl)ethyl]-2-(1-pyrrolidinyl)-]"
8,643 nM,"CC(NC(=O)c1cnc(N2CCN(C)CC2)nc1C1(c2ccc(Cl)cc2)CCCC1)c1cccc2ccccc12 (centres unmarked) [Example 159, 5-pyrimidinecarboxamide, 4-[1-(4-chlorophenyl)cyclopentyl]-2-(4-methyl-1-piperazinyl)-N-[1-(1-naphthalenyl)ethyl]-]"
9,30 nM,"CC1CCCN(c2ncc(C(=O)NC(C)c3cccc4ccccc34)c(C3(c4ccc(Cl)cc4)CCCC3)n2)C1 (centres unmarked) [Example 160, 5-pyrimidinecarboxamide, 4-[1-(4-chlorophenyl)cyclopentyl]-2-(3-methyl-1-piperidinyl)-N-[1-(1-naphthalenyl)ethyl]-]"
10,10 nM,"CC1CCN(c2ncc(C(=O)NC(C)c3cccc4ccccc34)c(C3(c4ccc(Cl)cc4)CCCC3)n2)CC1 (centres unmarked) [Example 161, 5-pyrimidinecarboxamide, 4-[1-(4-chlorophenyl)cyclopentyl]-2-(4-methyl-1-piperidinyl)-N-[1-(1-naphthalenyl)ethyl]-]"
11,113 nM,"CCC(C)Nc1ncc(C(=O)NC(C)c2cccc3ccccc23)c(C2(c3ccc(Cl)cc3)CCCC2)n1 (centres unmarked) [Example 162, 5-pyrimidinecarboxamide, 4-[1-(4-chlorophenyl)cyclopentyl]-2-[(1-methylpropyl)amino]-N-[1-(1-naphthalenyl)ethyl]-]"
12,705 nM,"CC(NC(=O)c1cnc(NCCN(C)C)nc1C1(c2ccc(Cl)cc2)CCCC1)c1cccc2ccccc12 (centres unmarked) [Example 163, 5-pyrimidinecarboxamide, 4-[1-(4-chlorophenyl)cyclopentyl]-2-[[2-(dimethylamino)ethyl]amino]-N-[1-(1-naphthalenyl)ethyl]-]"
